The record followed here is patent publication US20080241904A1, “PROCESS FOR PRODUCING ISOMALTOSE AND USES THEREOF” (KABUSHIKI KAISHA HAYASHIBARA SEIBUTSU KAGAKU KENKYUJO, priority 2001, published 2008).

The subject of experiment [1] is α-isomaltosyl-transferring enzyme. Put plainly: Influence of metal ions on activity of α-isomaltosyl-transferring enzyme (Strain C9). The class given is biochemical, Bacillus globisporus C9. Particulars: in the presence of 1 mM of each metal ion, None = 100. The procedure:
(§1) The α-isomaltosyl-transferring enzyme was assayed for enzymatic activity by dissolving panose in 100 mM acetate buffer (pH 6.0) to give a concentration of 2% (w/v) for a substrate solution, adding a 0.5 ml of an enzyme solution to 0.5 ml of the substrate solution, enzymatically reacting the mixture solution at 35° C. for 30 min, suspending the reaction mixture by boiling for 10 min, and quantifying glucose, among the cyclotetrasaccharide and glucose formed in the reaction mixture, by the glucose oxidase method. One unit activity of the α-isomaltosyl-transferring enzyme is defined as the enzyme amount that forms one micromole of glucose per minute under the above enzymatic reaction conditions.
(§2) The influence of metal ions on the activity of α-isomaltosyl-transferring enzyme was examined in the presence of 1 mM of each metal-ion according to the assay for the enzyme activity.

Experiment [2] shares this test system. Put plainly: Influence of metal ions on activity of α-isomaltosyl-transferring enzyme (Strain C11). The class given is biochemical, Bacillus globisporus C11. Particulars: in the presence of 1 mM of each metal ion; None = 100. The procedure: as §1, §2
For experiment [3], the system named is α-isomaltosylglucosaccharide-forming enzyme. The experiment in a line: Influence of metal ions on activity of α-isomaltosylglucosaccharide-forming enzyme (Strain C9). Particulars: for Relative activity: in the presence of 1 mM of each metal ion, None = 100. Format: biochemical, Bacillus globisporus C9. The procedure: The activities of these enzymes were assayed as follows: The α-isomaltosylglucosaccharide-forming enzyme of the present invention was assayed for enzymatic activity by dissolving maltotriose in 100 mM acetate buffer (pH 6.0) to give a concentration of 2% (w/v) for a substrate solution, adding a 0.5 ml of an enzyme solution to a 0.5 ml of the substrate solution, enzymatically reacting the mixture solution at 35° C. for 60 min, suspending the reaction mixture by heating at 100° C. for 10 min, and quantifying maltose, among the isomaltosyl maltose and maltose formed in the reaction mixture, by high-performance liquid chromatography (abbreviated as “HPLC” hereinafter). HPLC was carried out using “YMC PACK ODS-AQ303 column” commercialized by YMC Co., Ltd., Tokyo, Japan, at a column temperature of 40° C. and a flow rate of 0.5 ml/min of water; and using “RI-8012”, a differential refractometer commercialized by Tosoh Corporation, Tokyo, Japan. One unit activity of the α-isomaltosylglucosaccharide-forming enzyme is defined as the enzyme amount that forms one micromole of maltose per minute under the above enzymatic reaction conditions.
The influence of metal ions on the activity of α-isomaltosylglucosaccharide-forming enzyme was examined in the presence of 1 mM of each metal-ion according to the assay for the enzyme activity.

The test system is the same in experiment [4]. The experiment in a line: Influence of metal ions on enzyme activity, Experiment 4-2 (Strain C11). Format: biochemical, Bacillus globisporus C11. Particulars: for Relative activity: in the presence of 1 mM of each metal ion, None = 100.
The test system of experiment [5] is α-isomaltosylglucosaccharide-forming enzyme from Bacillus globisporus C11 strain. Put plainly: Specificity of saccharide transferring reaction acceptor, enzyme of Strain C11. Format: biochemical. Particulars: 1.6% acceptor, 4% PINE-DEX #100 as donor, one unit/g donor, 30° C., pH 6.0, 24 hours; GLC or HPLC. As for the experimental part: (§3) Using different saccharides, it was tested whether the saccharides were used as saccharide transferring reaction acceptors for the α-isomaltosylglucosaccharide-forming enzyme. A 1.6% solution, as a solution of saccharide transferring reaction acceptor, of D-glucose, D-xylose, L-xylose, D-galactose, D-fructose, D-mannose, D-arabinose, D-fucose, L-sorbose, L-rhamnose, methyl-α-glucopyranoside (methyl-α-glucose), methyl-β-glucopyranoside ([…]), N-acetyl-glucosamine, sorbitol, α,α-trehalose, isomaltose, isomaltotriose, cellobiose, gentibiose, maltitol, lactose, sucrose, α-cyclodextrin, β-cyclodextrin, or γ-cyclodextrin, was prepared. To each solution with a saccharide concentration was added “PINE-DEX #100”, a partial starch hydrolysate, as a saccharide donor, to give a concentration of 4%, and admixed with one unit/g saccharide donor, d.s.b., of either of purified specimens of α-isomaltosylglucosaccharide-forming enzyme from Bacillus globisporus C9 strain obtained by the method in Experiment 2-1, Bacillus globisporus C11 strain obtained by the method in Experiment 4-1. The resulting mixture solutions were incubated at 30° C. and pH 6.0 except that the enzyme from Arthrobacter globiformis A19 strain was incubated at pH 8.4 for 24 hours. The reaction mixtures of the post-enzymatic reactions were analyzed on gas chromatography (abbreviated as “GLC” hereinafter) for monosaccharides and disaccharides as acceptors, and on HPLC for trisaccharides as acceptors to confirm whether these saccharides could be used as their saccharide transferring reaction acceptors. In the case of performing GLC, the following apparatuses and conditions are used: GLC apparatus, “GC-16A” commercialized by Shimadzu Corporation, Tokyo, Japan; column, a stainless-steel column, 3 mm in diameter and 2 m in length, packed with 2% “SILICONE OV-17/CHROMOSOLV W”, commercialized by GL Sciences Inc., Tokyo, Japan; carrier gas, nitrogen gas at a flow rate of 40 ml/min under temperature conditions of increasing from 160° C. to 320° C. at an increasing temperature rate of 7.5° C./min; and detection, a hydrogen flame ionization detector.
(§4) In the case of HPLC analysis, the apparatuses and conditions used were: HPLC apparatus, “CCPD” commercialized by Tosoh Corporation, Tokyo, Japan; column, “ODS-AQ-303” commercialized by YMC Co., Ltd., Tokyo, Japan; eluent, water at a flow rate of 0.5 ml/min; and detection, a differential refractometer.

Experiment [6] deals with α-isomaltosylglucosaccharide-forming enzyme from Bacillus globisporus C9 strain. Put plainly: Specificity of saccharide transferring reaction acceptor, enzyme of Strain C9. The class given is biochemical. Particulars: 1.6% acceptor, 4% PINE-DEX #100 as donor, one unit/g donor, 30° C., pH 6.0, 24 hours; GLC or HPLC. The procedure: as §3, §4
The subject of experiment [7] is α-isomaltosylglucosaccharide-forming enzyme from Bacillus globisporus C11. The experiment in a line: Action of α-isomaltosylglucosaccharide-forming enzyme on saccharides as substrates (TLC), enzyme of Strain C11. Format: biochemical. The arrangement: key: −: it showed no change; +: it showed a slight reduction of the color of substrate spot and the formation of other reaction product; ++: it showed a high reduction of the color of substrate spot and the formation of other reaction product; +++: it showed a substantial disappearance of the color of substrate spot and the formation of other reaction product. Particulars: two units/g substrate, substrate 2% (w/v), 30° C., pH 6.0, 24 hours. The procedure: (§5) The action of α-isomaltosylglucosaccharide-forming enzyme on saccharides as substrates was tested. First, a solution of maltose, maltotriose, maltotetraose, maltopentaose, maltohexaose, maltoheptaose, isomaltose, isomaltotriose, panose, isopanose, α,α-trehalose (may be abbreviated as “trehalose” hereinafter), kojibiose, nigerose, neotrehalose, cellobiose, gentibiose, maltitol, maltotriitol, lactose, sucrose, erlose, selaginose, maltosyl glucoside, or isomaltosyl glucoside was prepared. To each of the above solutions was added two units/g substrate of the purified specimen of α-isomaltosylglucosaccharide-forming enzyme from Bacillus globisporus C9 in Experiment 2-1 or Bacillus globisporus C11 in Experiment 4-1, and each resulting solution was adjusted to give a substrate concentration of 2% (w/v) and incubated at 30° C. and pH 6.0 for 24 hours. The solutions before and after the enzymatic reactions were respectively subjected to thin-layer chromatography (abbreviated as “TLC” hereinafter). TLC was carried out in such a manner of separating saccharides by developing the solutions twice each using, as a developer, a mixture solution of n-butanol, pyridine, and water (=6:4:1), and, as a thin-layer plate, “[…] 60”, an aluminum plate (20×20 cm) for TLC commercialized by Merck & Co., Inc., Rahway, USA.; detecting the total saccharides in each mixture solution by spraying a mixture of sulfuric acid and methanol onto the aluminum plates to develop color of the total saccharides and detecting non-reducing saccharides in each mixture solution by the diphenylamine-aniline method.

For experiment [8], the system named is α-isomaltosylglucosaccharide-forming enzyme from Bacillus globisporus C9. Put plainly: Action of α-isomaltosylglucosaccharide-forming enzyme on saccharides as substrates (TLC), enzyme of Strain C9. Format: biochemical. The arrangement: key: −: it showed no change; +: it showed a slight reduction of the color of substrate spot and the formation of other reaction product; ++: it showed a high reduction of the color of substrate spot and the formation of other reaction product; +++: it showed a substantial disappearance of the color of substrate spot and the formation of other reaction product. Particulars: two units/g substrate, substrate 2% (w/v), 30° C., pH 6.0, 24 hours. The procedure:
as §5

SMILES strings stand for the structures.

As to `[Al+3]` [Al^3+], the Relative activity in experiment [1] was determined as 103%; in experiment [2], 89%; in experiment [3], 99%; in experiment [4] it was 100%.

Take `[Ba+2]` [Ba^2+]: the Relative activity in experiment [1] was found to be 102%; in experiment [2] it was 90%; in experiment [3], 65%; in experiment [4], 65%. Besides, the “Effect on enzyme activity (in words)” value in experiment [3] (1 mM, summary of Table 2) is “inhibited”; in experiment [4] (1 mM, summary of Table 6), “inhibited”.

Take `[Fe+2]` [Fe^2+]: the Relative activity stood at 96% in experiment [1], 105% in experiment [1] (listed as Fe^3+), 100% in experiment [4] and 102% in experiment [4] (listed as Fe^3+).

`OC[C@H]1O[C@H](OC[C@H]2O[C@H](OC[C@H]3OC(O)[C@H](O)[C@@H](O)[C@@H]3O)[C@H](O)[C@@H](O)[C@@H]2O)[C@H](O)[C@@H](O)[C@@H]1O` (stereo partly drawn) [Isomaltotriose, isomaltotriose]: in experiment [5], the “Product of saccharide transferring reaction, Enzyme of Strain C11” value (“Product … of Strain C11” for short) was “++ (a saccharide-transferred product was detected in an amount of at least ten percent through transferring reaction to acceptor)”. For the same compound, the “Product of saccharide transferring reaction, Enzyme of Strain C9” value (from here on “Product … of Strain C9”) in experiment [6] is “++ (a saccharide-transferred product was detected in an amount of at least ten percent through transferring reaction to acceptor)”. Besides, in experiment [7], the “Enzymatic action, Enzyme of Strain C11” value is reported as “−”. The “Enzymatic action, Enzyme of Strain C9” value in experiment [8] is “−”.

As for `OC[C@H]1O[C@@H](O[C@H]2[C@H](O)[C@@H](O)C(O)O[C@@H]2CO)[C@H](O)[C@@H](O)[C@H]1O` (stereo partly drawn) [Lactose, lactose], in experiment [5], the “Product … of Strain C11” value is given as “++ (a saccharide-transferred product was detected in an amount of at least ten percent through transferring reaction to acceptor)”. The “Product … of Strain C9” value in experiment [6] was “++ (a saccharide-transferred product was detected in an amount of at least ten percent through transferring reaction to acceptor)”. For the same compound, the “Enzymatic action, Enzyme of Strain C11” value in experiment [7] is given as “−”. In experiment [8], the “Enzymatic action, Enzyme of Strain C9” value was “−”.

In the case of `OC[C@@H](O)[C@@H](O[C@H]1O[C@H](CO)[C@@H](O)[C@H](O)[C@H]1O)[C@H](O)[C@@H](O)CO` [Maltitol, maltitol], the “Product … of Strain C11” value in experiment [5] is “++ (a saccharide-transferred product was detected in an amount of at least ten percent through transferring reaction to acceptor)”. Besides, the “Product … of Strain C9” value in experiment [6] is recorded as “++ (a saccharide-transferred product was detected in an amount of at least ten percent through transferring reaction to acceptor)”. Besides, the “Enzymatic action, Enzyme of Strain C11” value in experiment [7] is on record as “−”. Besides, in experiment [8], the “Enzymatic action, Enzyme of Strain C9” value was “−”.

Take `[Mg+2]` [Mg^2+]: the Relative activity in experiment [2] worked out at 91%; in experiment [3], 100%.

Regarding `[Ni+2]` [Ni^2+], the Relative activity came to 102% in experiment [1], 89% in experiment [2] and 93% in experiment [4].

Turning to `OC[C@H]1O[C@@](CO)(O[C@H]2O[C@H](CO)[C@@H](O)[C@H](O)[C@H]2O)[C@@H](O)[C@@H]1O` [Sucrose, sucrose], in experiment [5], the “Product … of Strain C11” value is “++ (a saccharide-transferred product was detected in an amount of at least ten percent through transferring reaction to acceptor)”. For the same compound, the “Product … of Strain C9” value in experiment [6] is recorded as “++ (a saccharide-transferred product was detected in an amount of at least ten percent through transferring reaction to acceptor)”. The “Enzymatic action, Enzyme of Strain C11” value in experiment [7] is on record as “−”. Besides, the “Enzymatic action, Enzyme of Strain C9” value in experiment [8] was “−”.

As for `OC[C@H]1O[C@H](O[C@H]2O[C@H](CO)[C@@H](O)[C@H](O)[C@H]2O)[C@H](O)[C@@H](O)[C@@H]1O` [Trehalose, α,α-trehalose], the “Product … of Strain C11” value in experiment [5] is “++ (a saccharide-transferred product was detected in an amount of at least ten percent through transferring reaction to acceptor)”. Further, in experiment [6], the “Product … of Strain C9” value is listed as “++ (a saccharide-transferred product was detected in an amount of at least ten percent through transferring reaction to acceptor)”. Moreover, the “Enzymatic action, Enzyme of Strain C11” value in experiment [7] is “−”. Also, the “Enzymatic action, Enzyme of Strain C9” value in experiment [8] is on record as “−”.
